Source: patent US20250215012A1, “IKZF2 DEGRADERS AND USES THEREOF” (REGENTS OF THE UNIVERSITY OF MICHIGAN, priority 2022, published 2025)

Molecular target: IKZF2 (Homo sapiens (Human), UniProt Q96SW2+Q9UKS7)
Test: IKZF2 HiBiT Assay (Jurkat-IKZF2-HiBiT cell line)
Type: cell-based
Settings: Jurkat-IKZF2-HiBiT cells, 24 hours; for DC50: read-out: HiBit assay degradation analysis DC50; for Dmax: read-out: HiBit assay degradation analysis Dmax
Description: Degradation of IKZF2 protein is determined by IKZF2 HiBiT assay using the Jurkat-IKZF2-HiBiT (Promega) cell line. Briefly, cells are seeded in culture medium. Compounds are serially diluted in culture medium, and certain volume of the diluted compounds is added to the appropriate well of the plate. After the addition of compounds, the cells are incubated. At the end of treatment, Nano-Glo HiBiT Lytic Detection Reagent (Promega) is added to each well, and then the plates are incubated at room temperature for a certain time period. The luminescent signal is measured using a CALRIOstar plate reader (BMG Labtech). The readings are normalized to the DMSO-treated cells and the IC50 is calculated by nonlinear regression (four parameters sigmoid fitted with variable slope, least squares fit, and no constraint) analysis using the GraphPad Prism 8 software.
Degradation of IKZF2 protein was determined by IKZF2 HiBiT assay using the Jurkat-IKZF2-HiBiT (Promega) cell line. […] Compounds were serially diluted in culture medium, and 20 μl of the diluted compounds were added to the appropriate wells of the plate. After the addition of compounds, the cells were incubated at 37° C. in an atmosphere of 5% CO2 for 24 hours. At the end of treatment, 40 ul of Nano-Glo HiBiT Lytic Detection Reagent (Promega) was added to each well, and then the plates were incubated at room temperature for 10-20 minutes. The luminescent signal was measured using a CALRIOstar plate reader (BMG Labtech). The readings were normalized to the DMSO-treated cells and the IC50 was calculated by nonlinear regression (four parameters sigmoid fitted with variable slope, least squares fit, and no constraint) analysis using the GraphPad Prism 8 software.

Chain of IKZF2 (Q9UKS7 whole entry): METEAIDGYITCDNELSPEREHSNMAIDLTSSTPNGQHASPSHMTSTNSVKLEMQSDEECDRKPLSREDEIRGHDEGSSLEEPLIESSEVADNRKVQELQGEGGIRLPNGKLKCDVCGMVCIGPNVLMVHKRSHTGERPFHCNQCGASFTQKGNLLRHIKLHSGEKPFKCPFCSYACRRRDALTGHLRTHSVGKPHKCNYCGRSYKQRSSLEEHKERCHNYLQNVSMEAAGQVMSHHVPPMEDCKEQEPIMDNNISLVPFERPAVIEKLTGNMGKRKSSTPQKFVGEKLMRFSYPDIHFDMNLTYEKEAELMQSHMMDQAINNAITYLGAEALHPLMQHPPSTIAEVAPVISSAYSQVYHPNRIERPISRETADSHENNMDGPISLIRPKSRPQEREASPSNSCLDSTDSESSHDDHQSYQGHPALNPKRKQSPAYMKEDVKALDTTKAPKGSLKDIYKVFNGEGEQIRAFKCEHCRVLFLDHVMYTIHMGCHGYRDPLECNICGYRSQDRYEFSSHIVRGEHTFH
Chain of IKZF2 (Q96SW2 whole entry): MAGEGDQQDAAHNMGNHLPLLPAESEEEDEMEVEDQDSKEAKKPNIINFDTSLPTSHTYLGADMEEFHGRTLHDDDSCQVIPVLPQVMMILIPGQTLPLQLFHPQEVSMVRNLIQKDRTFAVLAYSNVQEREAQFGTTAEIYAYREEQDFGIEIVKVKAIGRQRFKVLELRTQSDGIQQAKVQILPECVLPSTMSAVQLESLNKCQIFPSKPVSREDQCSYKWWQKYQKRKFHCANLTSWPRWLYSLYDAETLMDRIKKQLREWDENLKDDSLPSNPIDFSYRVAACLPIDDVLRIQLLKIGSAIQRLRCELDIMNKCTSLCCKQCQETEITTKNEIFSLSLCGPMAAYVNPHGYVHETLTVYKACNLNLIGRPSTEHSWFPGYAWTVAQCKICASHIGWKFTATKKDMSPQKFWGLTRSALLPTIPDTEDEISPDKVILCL
Chain of IKZF2 (Q16531 whole entry partner): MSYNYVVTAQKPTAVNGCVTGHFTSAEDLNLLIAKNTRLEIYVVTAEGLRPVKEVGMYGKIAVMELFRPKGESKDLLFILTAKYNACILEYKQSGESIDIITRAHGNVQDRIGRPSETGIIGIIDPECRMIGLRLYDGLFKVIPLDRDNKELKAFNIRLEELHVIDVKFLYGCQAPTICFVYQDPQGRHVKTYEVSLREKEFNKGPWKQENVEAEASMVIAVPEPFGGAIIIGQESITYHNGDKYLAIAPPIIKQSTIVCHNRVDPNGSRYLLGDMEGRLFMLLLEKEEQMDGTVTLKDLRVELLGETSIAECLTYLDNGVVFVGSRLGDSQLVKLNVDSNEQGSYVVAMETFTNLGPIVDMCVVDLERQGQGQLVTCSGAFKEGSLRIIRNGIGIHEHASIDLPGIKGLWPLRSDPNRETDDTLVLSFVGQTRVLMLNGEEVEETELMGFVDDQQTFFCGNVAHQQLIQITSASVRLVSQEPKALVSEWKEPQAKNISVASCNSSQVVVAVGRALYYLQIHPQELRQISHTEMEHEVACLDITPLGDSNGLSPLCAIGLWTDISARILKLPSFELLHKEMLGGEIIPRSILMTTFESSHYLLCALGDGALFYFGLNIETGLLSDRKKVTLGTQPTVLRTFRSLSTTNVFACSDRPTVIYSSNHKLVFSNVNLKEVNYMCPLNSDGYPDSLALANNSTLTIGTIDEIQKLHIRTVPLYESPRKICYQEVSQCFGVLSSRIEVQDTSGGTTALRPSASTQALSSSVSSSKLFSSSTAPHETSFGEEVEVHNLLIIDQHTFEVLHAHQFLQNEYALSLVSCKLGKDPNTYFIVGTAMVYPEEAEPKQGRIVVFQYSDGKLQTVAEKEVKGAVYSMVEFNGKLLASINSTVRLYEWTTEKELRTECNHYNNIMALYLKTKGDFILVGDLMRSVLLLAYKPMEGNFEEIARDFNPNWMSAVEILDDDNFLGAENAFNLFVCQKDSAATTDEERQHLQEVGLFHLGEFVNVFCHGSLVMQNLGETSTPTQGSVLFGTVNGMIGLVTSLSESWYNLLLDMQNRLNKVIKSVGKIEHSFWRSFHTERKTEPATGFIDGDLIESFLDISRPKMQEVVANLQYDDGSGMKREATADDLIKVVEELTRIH

| SMILES | DC50 | Dmax |
| --- | --- | --- |
| O=C1CCC(N2Cc3c(ccc4c3OCC43CCN(Cc4cccc5[nH]cnc45)CC3)C2=O)C(=O)N1 (centres unmarked) [Compound A71, 3-(1′-((1H-benzo[d]imidazol-4-yl)methyl)-6-oxo-6,8-dihydro-2H,7H-spiro[furo[2,3-e]isoindole-3,4′-piperidin]-7-yl)piperidine-2,6-dione] | > 500 nM | 40 to 60% |
| CCc1ccc(CN2CCC3(CC2)COc2c3ccc3c2CN(C2CCC(=O)NC2=O)C3=O)cc1 (centres unmarked) [Compound A16, 3-(1′-(4-ethylbenzyl)-6-oxo-6,8-dihydro-2H,7H-spiro[furo[2,3-e]isoindole-3,4′-piperidin]-7-yl)piperidine-2,6-dione] | > 500 nM | < 40% |
| O=C1CCC(N2Cc3c(ccc4c3OCC43CCN(Cc4cnn(C5CCCCC5)c4)CC3)C2=O)C(=O)N1 (centres unmarked) [Compound A220, 3-(1′-((1-cyclohexyl-1H-pyrazol-4-yl)methyl)-6-oxo-6,8-dihydro-2H,7H-spiro[furo[2,3-e]isoindole-3,4′-piperidin]-7-yl)piperidine-2,6-dione] | > 500 nM | < 40% |
| Cn1cc(CN2CCC3(CC2)COc2c3ccc3c2CN(C2CCC(=O)NC2=O)C3=O)c(Cl)n1 (centres unmarked) [Compound A257, 3-(1′-((3-chloro-1-methyl-1H-pyrazol-4-yl)methyl)-6-oxo-6,8-dihydro-2H,7H-spiro[furo[2,3-e]isoindole-3,4′-piperidin]-7-yl)piperidine-2,6-dione] | > 500 nM | < 40% |
| Cn1cc2ccc(CN3CCC4(CC3)COc3c4ccc4c3CN([C@H]3CCC(=O)NC3=O)C4=O)cc2n1 [Compound A169, (S)-3-(1′-((2-methyl-2H-indazol-6-yl)methyl)-6-oxo-6,8-dihydro-2H,7H-spiro[furo[2,3-e]isoindole-3,4′-piperidin]-7-yl)piperidine-2,6-dione] | < 50 nM | 60 to 80% |
| COCCn1ncc2c(CN3CCC4(CC3)COc3c4ccc4c3CN(C3CCC(=O)NC3=O)C4=O)cccc21 (centres unmarked) [Compound A343, 3-(1′-((1-(2-methoxyethyl)-1H-indazol-4-yl)methyl)-6-oxo-6,8-dihydro-2H,7H-spiro[furo[2,3-e]isoindole-3,4′-piperidin]-7-yl)piperidine-2,6-dione] | > 500 nM | 40 to 60% |
| O=C1CCC(N2Cc3c(ccc4c3OCC43CCN(Cc4cnn(Cc5ccccc5Cl)c4)CC3)C2=O)C(=O)N1 (centres unmarked) [Compound A240, 3-(1′-((1-(2-chlorobenzyl)-1H-pyrazol-4-yl)methyl)-6-oxo-6,8-dihydro-2H,7H-spiro[furo[2,3-e]isoindole-3,4′-piperidin]-7-yl)piperidine-2,6-dione] | < 50 nM | 60 to 80% |
| Cn1cc(-c2ccc(CN3CCC4(CC3)COc3c4ccc4c3CN(C3CCC(=O)NC3=O)C4=O)cc2)cn1 (centres unmarked) [Compound A148, 3-(1′-(4-(1-methyl-1H-pyrazol-4-yl)benzyl)-6-oxo-6,8-dihydro-2H,7H-spiro[furo[2,3-e]isoindole-3,4′-piperidin]-7-yl)piperidine-2,6-dione] | < 50 nM | 60 to 80% |
| Cc1nnc(-c2cccc(CN3CCC4(CC3)COc3c4ccc4c3CN(C3CCC(=O)NC3=O)C4=O)c2)o1 (centres unmarked) [Compound A151, 3-(1′-(3-(5-methyl-1,3,4-oxadiazol-2-yl)benzyl)-6-oxo-6,8-dihydro-2H,7H-spiro[furo[2,3-e]isoindole-3,4′-piperidin]-7-yl)piperidine-2,6-dione] | 200 to 500 nM | 40 to 60% |
| O=C1CCC(N2Cc3c(ccc4c3OCC43CCN(Cc4cccc5ncccc45)CC3)C2=O)C(=O)N1 (centres unmarked) [Compound A38, 3-(6-oxo-1′-(quinolin-5-ylmethyl)-6,8-dihydro-2H,7H-spiro[furo[2,3-e]isoindole-3,4′-piperidin]-7-yl)piperidine-2,6-dione] | 50 to 200 nM | 60 to 80% |
| O=C1CCC(N2Cc3c(ccc4c3OCC43CCN(Cc4cccc(N5CCOCC5)c4)CC3)C2=O)C(=O)N1 (centres unmarked) [Compound A97, 3-(1′-(3-morpholinobenzyl)-6-oxo-6,8-dihydro-2H,7H-spiro[furo[2,3-e]isoindole-3,4′-piperidin]-7-yl)piperidine-2,6-dione] | > 500 nM | 40 to 60% |
| Cn1cc2cccc(CN3CCC4(CC3)COc3c4ccc4c3CN(C3CCC(=O)NC3=O)C4=O)c2n1 (centres unmarked) [Compound A75, 3-(1′-((2-methyl-2H-indazol-7-yl)methyl)-6-oxo-6,8-dihydro-2H,7H-spiro[furo[2,3-e]isoindole-3,4′-piperidin]-7-yl)piperidine-2,6-dione] | 50 to 200 nM | 60 to 80% |
| O=C1CCC(N2Cc3c(ccc4c3OCC43CCN(Cc4cccc5ccsc45)CC3)C2=O)C(=O)N1 (centres unmarked) [Compound A189, 3-(1′-(benzo[b]thiophen-7-ylmethyl)-6-oxo-6,8-dihydro-2H,7H-spiro[furo[2,3-e]isoindole-3,4′-piperidin]-7-yl)piperidine-2,6-dione] | 50 to 200 nM | 60 to 80% |
| O=C1CCC(N2Cc3c(ccc4c3OCC43CCN(Cc4ccc5occc5c4)CC3)C2=O)C(=O)N1 (centres unmarked) [Compound A120, 3-(1′-(benzofuran-5-ylmethyl)-6-oxo-6,8-dihydro-2H,7H-spiro[furo[2,3-e]isoindole-3,4′-piperidin]-7-yl)piperidine-2,6-dione] | < 50 nM | 60 to 80% |
| O=C1CCC(N2Cc3c(ccc4c3OCC43CCN(Cc4cnn(S(=O)(=O)c5ccc(Cl)cc5)c4)CC3)C2=O)C(=O)N1 [Compound A352, (S)-3-(1′-((1-((4-chlorophenyl)sulfonyl)-1H-pyrazol-4-yl)methyl)-6-oxo-6,8-dihydro-2H,7H-spiro[furo[2,3-e]isoindole-3,4′-piperidin]-7-yl)piperidine-2,6-dione] | 200 to 500 nM | – |
| O=C1CCC(N2Cc3c(ccc4c3OCC43CCN(Cc4cccc5cccc(F)c45)CC3)C2=O)C(=O)N1 (centres unmarked) [Compound A50, 3-(1′-((8-fluoronaphthalen-1-yl)methyl)-6-oxo-6,8-dihydro-2H,7H-spiro[furo[2,3-e]isoindole-3,4′-piperidin]-7-yl)piperidine-2,6-dione] | < 50 nM | 60 to 80% |
| O=C1CC[C@H](N2Cc3c(ccc4c3OCC43CCN(Cc4cnn(S(=O)(=O)c5cccc(Cl)c5F)c4)CC3)C2=O)C(=O)N1 [Compound A357, (S)-3-(1′-((1-((3-chloro-2-fluorophenyl)sulfonyl)-1H-pyrazol-4-yl)methyl)-6-oxo-6,8-dihydro-2H,7H-spiro[furo[2,3-e]isoindole-3,4′-piperidin]-7-yl)piperidine-2,6-dione] | – | 60 to 80% |
| Cn1cc(-c2ccc(CN3CCC4(CC3)COc3c4ccc4c3CN(C3CCC(=O)NC3=O)C4=O)s2)cn1 (centres unmarked) [Compound A190, 3-(1′-((5-(1-methyl-1H-pyrazol-4-yl)thiophen-2-yl)methyl)-6-oxo-6,8-dihydro-2H,7H-spiro[furo[2,3-e]isoindole-3,4′-piperidin]-7-yl)piperidine-2,6-dione] | > 500 nM | 40 to 60% |
| O=C1CC[C@H](N2Cc3c(ccc4c3OCC43CCN(Cc4cnn(-c5ccc(C(F)(F)F)cc5)c4)CC3)C2=O)C(=O)N1 [Compound A360, (S)-3-(6-oxo-1′-((1-(4-(trifluoromethyl)phenyl)-1H-pyrazol-4-yl)methyl)-6,8-dihydro-2H,7H-spiro[furo[2,3-e]isoindole-3,4′-piperidin]-7-yl)piperidine-2,6-dione] | < 50 nM | 60 to 80% |
| Cc1c(-c2cccc(CN3CCC4(CC3)COc3c4ccc4c3CN([C@H]3CCC(=O)NC3=O)C4=O)c2)cnn1C [Compound A284, (S)-3-(1′-(3-(1,5-dimethyl-1H-pyrazol-4-yl)benzyl)-6-oxo-6,8-dihydro-2H,7H-spiro[furo[2,3-e]isoindole-3,4′-piperidin]-7-yl)piperidine-2,6-dione] | < 50 nM | 60 to 80% |
| O=C1CCC(N2Cc3c(ccc4c3OCC43CCN(Cc4ccc5oc(=O)[nH]c5c4)CC3)C2=O)C(=O)N1 (centres unmarked) [Compound A165, 3-(6-oxo-1′-((2-oxo-2,3-dihydrobenzo[d]oxazol-5-yl)methyl)-6,8-dihydro-2H,7H-spiro[furo[2,3-e]isoindole-3,4′-piperidin]-7-yl)piperidine-2,6-dione] | 50 to 200 nM | 60 to 80% |
| O=C1CC[C@H](N2Cc3c(ccc4c3OCC43CCN(Cc4ccc5c(c4)C(=O)NC5)CC3)C2=O)C(=O)N1 [Compound A171, (S)-3-(6-oxo-1′-((3-oxoisoindolin-5-yl)methyl)-6,8-dihydro-2H,7H-spiro[furo[2,3-e]isoindole-3,4′-piperidin]-7-yl)piperidine-2,6-dione] | 50 to 200 nM | 60 to 80% |
| CC(F)(F)c1ccc(CN2CCC3(CC2)COc2c3ccc3c2CN(C2CCC(=O)NC2=O)C3=O)cc1 (centres unmarked) [Compound A30, 3-(1′-(4-(1,1-difluoroethyl)benzyl)-6-oxo-6,8-dihydro-2H,7H-spiro[furo[2,3-e]isoindole-3,4′-piperidin]-7-yl)piperidine-2,6-dione] | > 500 nM | < 40% |
